Tests used:
[1] = target: Large neutral amino acids transporter small subunit 1 (Homo sapiens) (UniProt Q01650); experiment: Cis-inhibition of human LAT1 expressed in TREx HEK293 cells at 200 uM assessed as inhibition of [3H]-gabapentin uptake at 200 uM preincubated for 3 mins at 37 degC followed by washing with choline buffer and measured after 3 hrs by scintillation counting analysis relative to BCH; type: cell-based
[2] = target: Large neutral amino acids transporter small subunit 1 (Homo sapiens) (UniProt Q01650); experiment: Trans-stimulation of human LAT1 expressed in TREx HEK293 cells assessed as induction of [3H]-gabapentin efflux at 200 uM after 3 mins by scintillation counting analysis relative to L-phenylalanine; type: cell-based
N[C@H](Cc1ccccc1)C(=O)O = experiment: (§1) Substrate activity at recombinant human LAT1 expressed in Xenopus laevis oocytes assessed as Km by measuring L-[14C]-leucine uptake by Eadie-Hofstee plot method; type: cell-based
N[C@@H](Cc1ccccc1)C(=O)O [3] = experiment: as §1; type: cell-based
N[C@@H](Cc1ccccc1)C(=O)O [4] = experiment: Binding affinity to LAT1 (unknown origin) by in-vitro cell uptake assay; settings: Homo sapiens

Chain of Large neutral amino acids transporter small subunit 1 (Homo sapiens) (Q01650 whole entry): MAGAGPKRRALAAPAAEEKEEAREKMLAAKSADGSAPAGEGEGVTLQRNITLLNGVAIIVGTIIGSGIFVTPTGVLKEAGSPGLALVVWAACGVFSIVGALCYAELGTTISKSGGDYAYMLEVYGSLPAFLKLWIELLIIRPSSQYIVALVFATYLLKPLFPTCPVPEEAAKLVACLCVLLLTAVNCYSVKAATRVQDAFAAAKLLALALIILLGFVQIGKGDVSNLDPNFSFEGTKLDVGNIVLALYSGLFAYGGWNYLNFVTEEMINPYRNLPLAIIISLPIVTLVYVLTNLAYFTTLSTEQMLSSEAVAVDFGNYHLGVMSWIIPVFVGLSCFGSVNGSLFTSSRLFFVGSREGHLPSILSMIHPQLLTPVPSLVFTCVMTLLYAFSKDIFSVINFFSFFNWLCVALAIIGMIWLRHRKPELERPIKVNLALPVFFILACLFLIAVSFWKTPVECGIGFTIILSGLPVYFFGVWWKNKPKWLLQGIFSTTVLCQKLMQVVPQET
Chain of Large neutral amino acids transporter small subunit 1 (Homo sapiens), Q01650 (Q01650 whole entry): as above

Molecule | inhibition [1] | Activity [2] | Km (N[C@H](Cc1ccccc1)C(=O)O) | Km (N[C@@H](Cc1ccccc1)C(=O)O [3]) | Km (N[C@@H](Cc1ccccc1)C(=O)O [4])
N[C@@H](Cc1cccc(CC(=O)O)c1)C(=O)O | 25% | 24% | – | – | –
CNC(=O)c1cccc(C[C@H](N)C(=O)O)c1 | 88% | 100% | – | – | –
N[C@@H](Cc1cccc(O)c1)C(=O)O | 97% | 96% | – | – | –
Large neutral amino acids transporter small subunit 1 (Homo sapiens), Q01650 | – | – | 121 µM | 14.2 µM | 11 µM
N[C@@H](Cc1cccc(-c2ccccc2)c1)C(=O)O | – | 29% | – | – | –
Cc1ccc(C[C@H](N)C(=O)O)cc1 | – | 100% | – | – | –
N[C@@H](Cc1cccc(C(=O)OCCO)c1)C(=O)O | 81% | 74% | – | – | –
COC(=O)c1cccc(C[C@H](N)C(=O)O)c1 | 81% | 89% | – | – | –
N[C@@H](Cc1cccc(Cc2ccccc2)c1)C(=O)O | – | 29% | – | – | –
CC(=O)c1cccc(C[C@H](N)C(=O)O)c1 | 100% | 96% | – | – | –
CC[C@H](C)[C@H](N)C(=O)O | – | 93% | – | – | –
N[C@@H](Cc1ccccc1)C(=O)O | – | 100% | – | – | –
N#Cc1cccc(C[C@H](N)C(=O)O)c1 | 67% | 70% | – | – | –
N[C@H](Cc1ccccc1)C(=O)O | 74% | 96% | – | – | –
CC(=O)Oc1cccc(C[C@H](N)C(=O)O)c1 | 54% | 37% | – | – | –
Cc1cccc(C[C@H](N)C(=O)O)c1 | – | 140% | – | – | –
CC(C)[C@H](N)C(=O)O | 43% | 100% | – | – | –
N[C@@H](Cc1cn(Cc2ccccc2)cn1)C(=O)O | 74% | 81% | – | – | –
CSCC[C@@H](N)C(=O)O | 56% | 110% | – | – | –
N=C(N)NCCC[C@H](N)C(=O)O | – | 28% | – | – | –
COC(=O)c1ccc(C[C@H](N)C(=O)O)cc1 | 37% | 67% | – | – | –
CC(C)[C@@H](N)C(=O)O | 11% | 41% | – | – | –
N[C@@H](Cc1c[nH]c2ccccc12)C(=O)O | – | 59% | – | – | –
N[C@@H](Cc1c[nH]cn1)C(=O)O | 92% | 140% | – | – | –
CC(C)(C)c1cccc(C[C@H](N)C(=O)O)c1 | 101% | 44% | – | – | –
NCCCC[C@H](N)C(=O)O | -2.1% | 33% | – | – | –

Molecule | inhibition [1] | Activity [2] | Km (N[C@H](Cc1ccccc1)C(=O)O) | Km (N[C@@H](Cc1ccccc1)C(=O)O [3]) | Km (N[C@@H](Cc1ccccc1)C(=O)O [4])
Cc1cc(C[C@H](N)C(=O)O)cc(C(=O)O)c1 | 30% | 28% | – | – | –
N[C@H](Cc1ccc(O)cc1)C(=O)O | 35% | 85% | – | – | –
N[C@H](Cc1c[nH]c2ccccc12)C(=O)O | 29% | 81% | – | – | –
Nc1cccc(C[C@H](N)C(=O)O)c1 | 100% | 100% | – | – | –
N[C@H](Cc1cccc(C(=O)O)c1)C(=O)O | 9% | 31% | – | – | –
N[C@@H](Cc1cccc(C(F)(F)F)c1)C(=O)O | 87% | 59% | – | – | –
CC(C)C[C@](N)(Cc1ccccc1)C(=O)O | 15% | 19% | – | – | –
CSCC[C@H](N)C(=O)O | – | 89% | – | – | –
N[C@@H](Cc1cccc(CO)c1)C(=O)O | 99% | 120% | – | – | –
CC[C@H](C)[C@@H](N)C(=O)O | 18% | 78% | – | – | –
N[C@@H](Cc1cccc(C(=O)O)c1)C(=O)O | 69% | 56% | – | – | –
CC(C)(C)OC(=O)c1cccc(C[C@H](N)C(=O)O)c1 | 99% | 70% | – | – | –
N[C@H](Cc1c[nH]cn1)C(=O)O | 33% | 78% | – | – | –
COC(=O)c1cc(C)cc(C[C@H](N)C(=O)O)c1 | 71% | 56% | – | – | –
CC(C)C[C@@](N)(Cc1ccccc1)C(=O)O | 2.1% | 27% | – | – | –
N[C@@](Cc1ccccc1)(Cc1c[nH]cn1)C(=O)O | 19% | 13% | – | – | –
COC(=O)c1cccc(C[C@@H](N)C(=O)O)c1 | 40% | 41% | – | – | –
NCC(=O)O | – | 29% | – | – | –
CSCC[C@@](N)(Cc1ccccc1)C(=O)O | -0.2% | 27% | – | – | –
NCc1cccc(C[C@H](N)C(=O)O)c1 | 27% | 78% | – | – | –
CSCC[C@](N)(Cc1ccccc1)C(=O)O | 21% | 56% | – | – | –
N[C@@H](CCC(=O)O)C(=O)O | -2.4% | 27% | – | – | –
N[C@@H](Cc1ccc(O)cc1)C(=O)O | – | 96% | – | – | –
NC(Cc1ccccc1)(Cc1ccccc1)C(=O)O | 11% | 23% | – | – | –
COC(=O)Cc1cccc(C[C@H](N)C(=O)O)c1 | 72% | 52% | – | – | –
CC(=O)Nc1cccc(C[C@H](N)C(=O)O)c1 | 85% | 110% | – | – | –

From ChEMBL document CHEMBL4229477, “Reevaluating the Substrate Specificity of the L-Type Amino Acid Transporter (LAT1)” (J Med Chem, 2018)
